The values below come from patent US20250135002A1, “COMPOSITIONS FOR AND METHOD OF EFFECTING TUMOR CELL DEATH” (Duke University, priority 2022, published 2025).

Like-named read-outs stand apart in the source and are kept apart here.

This assay has as its system c1498 murine AML (Acute Myeloid Leukemia) cells. Briefly: Survival of FACS-sorted phosphatidylserine-positive AML cells after cytarabine treatment. Type of assay: cell-based. Particulars: Mus musculus, 1 μM cytarabine for 24 hrs, live cell number estimated from growth rates. The text has this:
FIG. 1A-FIG. 1C show the survival of phosphatidylserine-expressing AML cells. […] The rectangles indicate the sorted cells. […] About 1000 each of the sorted cells were placed into multi-well plates. When the cells reached sufficient numbers, they were counted at different time points to measure their growth rates. The growth rates were then used to estimate the initial live cell numbers. The following formula was used to calculate the minimal initial live cell numbers: Minimal initial cell number=Total cell population/[…] (days to reach the current cell number).
To determine whether cells expressing high-level of PS expression on the cell surface were destined to die, the viability of c1498 murine AML (Acute Myeloid Leukemia) cells treated with cytarabine (part of a classical chemotherapy regimen for human AML) was examined.
Specifically, whether PS-expressing acute myelocytic leukemia (AML) cells survived was examined. FACS was used to identify and sort c1498 cells treated with 1 μM cytarabine (for 24 hrs) and with high PS-expression. The sorted cells were then seeded into 6-well dishes and the ability to survive and proliferate was measured. FIG. 1A-FIG. 1B). […]

For `Nc1ccn([C@@H]2O[C@H](CO)[C@@H](O)[C@@H]2O)c(=O)n1` [cytarabine], the viability at 1 µM (FACS-sorted PS+7AAD+ (late apoptotic) cells, read-out: proportion of cytarabine-treated PS+7AAD+ c1498 cells that remained viable and could proliferate) is roughly 8%; the viability at 1 µM (FACS-sorted PS+7AAD- (early apoptotic) cells, read-out: proportion of cytarabine-treated PS+7AAD- c1498 cells that remained viable and could proliferate) was roughly 25%.
